Patent publication US9371335B2, “Spirothienopyran-piperidine derivatives as ORL-1 receptor antagonists for their use in the treatment of alcohol dependence and abuse” (Eli Lilly and Company, priority 2011, dated 2016)

Legend:
Assay type in all cases: in vivo, rat
[1] = test system: msP rats; assay: Free-choice ethanol self-administration in msP rats; conditions: 24 hr
Experimental: In a separate study, male msP rats are obtained from a private colony (University of Camerino, Marche, Italy), individually-housed with food, 10% ethanol (v/v in water), and water available ad libitum, and maintained on a 12 hr. light/dark cycle. Ethanol and water are measured using graduated bottles to assess the volume of ethanol consumed (Economidou D, Fedeli A, Fardon R M, Weiss F, Massi M and Ciccocioppo R (2006) Effect of novel nociceptin/orphanin FQ-NOP receptor ligands on ethanol drinking in alcohol-preferring msP rats. Peptides 27:3299-3306.). Food intake is monitored by weighing the food receptacle. Once rats reach a stable baseline of voluntary ethanol consumption of 5-6 g/kg/day (approximately 4-5 months of age), rats are treated orally with test compounds in the dose range of 3 or 30 mg/kg in a formulation consisting of 1:1 distilled water: 1 M H3PO4 (1-5 mL/kg dose volume), one hour prior to onset of the dark cycle, using a within-subjects, crossover design (3-4 day washout between subsequent doses). Ethanol, water, and food are presented to the animals at the onset of the dark cycle, and consumption of food and fluids is measured at 2, 8, and 24 hr intervals.

[2] = test system: msP rats; assay: Stress-induced (yohimbine) reinstatement of ethanol-seeking in msP rats; conditions: for Reduction vs. Vehicle (lever presses, yohimbine reinstatement) / Avg Lever Presses (Drug-treated): male msP rats, 30 mg/kg oral; for Avg Lever Presses (Drug-treated): yohimbine 2.0 mg/kg ip; for stress-induced reinstatement of ethanol-seeking: msP rats, result in words
Excerpt: Stress-Induced Reinstatement in msP Rats:
Stress is a key trigger for relapse to drug- and alcohol-seeking in humans and rodents (Sinha R (2008) Chronic stress, drug use, and vulnerability to addiction. Ann N Y Acad Sci 1141:105-130), and can be modeled in rats using a stress-induced reinstatement procedure. In this procedure, stress-induced reinstatement of alcohol-seeking is elicited by administration of the alpha2 adrenoceptor antagonist yohimbine, a known pharmacological stressor (Le A D, Harding S, Juzytsch W, Funk D and Shaham Y (2005) Role of alpha-2 adrenoceptors in stress-induced reinstatement of alcohol seeking and alcohol self-administration in rats. Psychopharmacology (Berl) 179:366-373).
Male msP rats are obtained from the University of Camerino (Marche, Italy) and individually housed with ad libitum access to water and standard laboratory chow. Rats are trained to lever press for 10% ethanol in water (v/v) in standard operant chambers (MED Associates, Inc., St. Albans, Vt.) located in sound-attenuating, ventilated environmental cubicles. The chambers consist of two stainless steel and two clear Plexiglas walls. The floor grid of the operant chambers consists of 0.5 cm diameter stainless steel bars placed approximately 1.5 cm apart. Each operant chamber is equipped with a drinking reservoir 4 cm above the grid floor, with two retractable operant levers located approximately 3 cm on either side of the drinking receptacle. Fluid delivery, lever presses, and presentation of visual stimuli (illumination of a white house light) are controlled by an IBM compatible computer for offline analysis.
Rats are first trained to self-administer ethanol solution in 30-min daily operant sessions under a FR1 schedule of reinforcement, in which each response on the active lever results in delivery of 0.1 ml of ethanol. Each ethanol delivery is associated with a 5-sec time-out signalled by illumination of a white house light. Alcohol self-administration training continues until stable baseline responding is achieved. […] The procedure of each session is the same as ethanol self-administration sessions except that the lever responses are no longer reinforced. Animals are pre-treated with vehicle for 3 days before the initial administration of ORL-1 receptor antagonists in order to familiarize them with the oral administration procedure. The msP rats are then subjected to the reinstatement test conducted under the same extinction conditions. Reinstatement consists of oral administration of vehicle or test compound (3 or 30 mg/kg, n=10/group, solubilized in a 1:1 mixture of distilled water and 1M H3PO4, using gentle warming in a 45-60° C. water bath), followed 30-min later by intraperitoneal administration of yohimbine (2.0 mg/kg) 30-min before the operant session.

[3] = test system: P rats; assay: Free-choice ethanol self-administration in P rats; conditions: for Mean EtOH Consumed in g/kg (Drug-treated) / Reduction vs. Vehicle (EtOH consumed): 12 hr; for ethanol self-administration: free-choice access, P rats and msP rats
Excerpt: Free-Choice Ethanol Self-Administration in Alcohol-Preferring Rats: P Rats:
In this procedure (modified from Rodd-Henricks Z A, McKinzie D L, Shaikh S R, Murphy J M, McBride W J, Lumeng L and Li T K (2000) Alcohol deprivation effect is prolonged in the alcohol preferring (P) rat after repeated deprivations. Alcohol Clin Exp Res 24:8-16), female P rats are obtained from a private colony (Taconic, Germantown, N.Y.), individually-housed with food, 15% ethanol (v/v, in water), and water available ad libitum, and maintained on a 12 hr. light/dark cycle (lights off at 16:00). The chambers are equipped with a force transduction system (TSE Systems, Bad Homburg, Germany) attached to the ethanol, water, and food receptacles to enable continuous monitoring of food and liquid consumption. Rats voluntarily consume 15% ethanol with a mean daily intake of roughly 5 g/kg for several months prior to drug testing. Rats are treated orally with vehicle or test compounds in the dose range of 3, 10, or 30 mg/kg (3 mL/kg dose volume, dissolved in a vehicle consisting of 20% Captisol® in 25 mM phosphate buffer at pH=2), or naltrexone (10 mg/kg, 1 mL/kg dose volume, dissolved in water) immediately prior to the onset of the dark cycle, using a within-subjects, crossover design (3-4 day washout between subsequent doses). In a separate experiment, rats receive oral administration of vehicle followed by 4 daily oral doses of vehicle or 30 mg/kg test compound immediately prior to the onset of the dark cycle, using a between-subjects design.

[4] = P rats, 30 mg/kg oral once daily, day 2
[5] = P rats, 30 mg/kg oral once daily, day 3
[6] = P rats, 30 mg/kg oral once daily, day 4
[7] = P rats, 30 mg/kg oral once daily, day 5

SMILES | Mean EtOH Consumed in g/kg (Drug-treated) ([1]; 3 mg/kg oral) [g/kg] | Reduction vs. Vehicle (EtOH consumed) ([1]; 3 mg/kg oral) [%] | Mean EtOH Consumed in g/kg (Drug-treated) ([1]; 30 mg/kg oral) [g/kg] | Reduction vs. Vehicle (EtOH consumed) ([1]; 30 mg/kg oral) [%] | Reduction vs. Vehicle (lever presses, yohimbine reinstatement) [2] [%] | Avg Lever Presses (Drug-treated) [2] | stress-induced reinstatement of ethanol-seeking [2] | Mean EtOH Consumed in g/kg (Drug-treated) ([3]; P rats, 10 mg/kg oral) [g/kg] | Reduction vs. Vehicle (EtOH consumed) ([3]; P rats, 10 mg/kg oral) [%] | Mean EtOH Consumed in g/kg (Drug-treated) ([3]; P rats, 30 mg/kg oral) [g/kg] | Reduction vs. Vehicle (EtOH consumed) ([3]; P rats, 30 mg/kg oral) [%] | ethanol self-administration ([3]; result in words) | further results
Cc1nn(-c2ncccc2CO)cc1CN1CCC2(CC1)OCC(F)(F)c1cc(Cl)sc12 [Compound 1, [2-[4-[(2-chloro-4,4-difluoro-spiro[5H-thieno[2,3-c]pyran-7,4′-piperidine]-1′-yl)methyl]-3-methyl-pyrazol-1-yl]-3-pyridyl]methanol] | 6.7 | 8.2 | 4.4 | 39.7 | 72.7 | 4.8 | reduce stress-induced reinstatement of ethanol-seeking | 3.67 | 22.4 | 1.50 | 68.3 | significantly reduce ethanol self-administration | Mean EtOH Consumed in g/kg (Drug-treated) ([3]; P rats, 3 mg/kg oral): 3.54 g/kg; Reduction vs. Vehicle (EtOH consumed) ([3]; P rats, 3 mg/kg oral): 25.2%; Mean EtOH Consumed in g/kg (day 2) [3, 4]: 1.59 g/kg; Reduction vs. vehicle (EtOH consumed, day 2) [3, 4]: 63.6%; Mean EtOH Consumed in g/kg (day 3) [3, 5]: 2.02 g/kg; Reduction vs. vehicle (EtOH consumed, day 3) [3, 5]: 61.8%; Mean EtOH Consumed in g/kg (day 4) [3, 6]: 2.69 g/kg; Reduction vs. vehicle (EtOH consumed, day 4) [3, 6]: 45.0%; Mean EtOH Consumed in g/kg (day 5) [3, 7]: 2.50 g/kg; Reduction vs. vehicle (EtOH consumed, day 5) [3, 7]: 54.0%; suppression of ethanol intake on repeated dosing ([3]; P rats, 4 days of once daily dosing, result in words): maintain suppression of ethanol intake in P rats throughout 4 days of once daily dosing without tachyphylaxis
Cc1nn(-c2ncccc2F)cc1CN1CCC2(CC1)OCC(F)(F)c1cc(Cl)sc12 [Compound 2, 2-Chloro-4,4-difluoro-1′-[[1-(3-fluoro-2-pyridyl)-3-methyl-pyrazol-4-yl]methyl]spiro[5H-thieno[2,3-c]pyran-7,4′-piperidine]] | 5.6 | 20.0 | 5 | 28.6 | 69.3 | 5.5 | reduce stress-induced reinstatement of ethanol-seeking | 3.70 | 28.3 | 3.40 | 34.1 | significantly reduce ethanol self-administration | 
